Among the data in US9247759B2, “Identification of human T2R receptors that respond to bitter compounds that elicit the bitter taste in compositions, and the use thereof in assays to identify compounds that inhibit (block) bitter taste in compositions and use thereof” (SENOMYX, INC., priority 2007, dated 2016) are IC50 values, retold here.

The test deals with hT2R8 (Homo sapiens (Human), UniProt Q9NYW2). The test can be described thus: hT2R8 antagonist high-throughput FLIPR assay, stable cell line with G16g44, agonist andrographolide. The class given is cell-based. From the text: After a ligand is identified for a particular hT2R, a HEK293 cell line stably expressing both the hT2R and G16gust44 are generated, facilitating future screening assays to identify other ligands that activate the particular hT2R or which modulate (block or enhance) the activation of this hT2R by another bitter ligand such as a bitter compound contained in coffee. This avoids the need for transient transfection.
hT2R8, sequence (Q9NYW2 whole entry): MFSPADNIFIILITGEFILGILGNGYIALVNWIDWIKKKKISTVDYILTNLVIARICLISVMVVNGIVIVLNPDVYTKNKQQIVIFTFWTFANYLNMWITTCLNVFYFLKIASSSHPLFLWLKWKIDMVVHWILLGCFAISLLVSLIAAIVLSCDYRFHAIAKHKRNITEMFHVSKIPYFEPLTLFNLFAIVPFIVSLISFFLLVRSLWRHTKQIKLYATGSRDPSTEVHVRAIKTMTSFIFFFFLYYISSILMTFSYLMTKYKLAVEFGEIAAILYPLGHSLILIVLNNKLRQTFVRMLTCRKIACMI
To identify antagonists, cell lines stably expressing hT2R8 and hT2R14, respectively, together with the promiscuous chimeric G16g44 protein were generated as described in previous patent applications. A high-throughput assay was established using the stable cell lines and FLIPR (Fluorescent Imaging Plate Reader). An agonist of hT2R8 or hT2R14 was used to activate the receptors up to 70-80% of their respective maximal activity. For hT2R8, the agonist used was andrographolide (200 […]); for hT2R14, it was aristolochic acid (3 μM). To identify antagonists, compounds with diverse chemical structures were added together with the agonist.
To identify antagonists, cell lines stably expressing hT2R8 together with the promiscuous chimeric G16g44 protein were generated as described in previous patent applications. A high-throughput assay was established using the stable cell lines and FLIPR (Fluorescent Imaging Plate Reader). An agonist of hT2R8 was used to activate the receptors up to 70-80% of their respective maximal activity. For hT2R8, the agonist used was andrographolide (200 μM). To identify antagonists, compounds with diverse chemical structures were added together with the agonist.

The mark [1] stands for this setting: table after Example 12-37, read-out: hT2R8 IC50.
Setting [2] is: read-out: IC50 on hT2R8 bitter receptor.
Where [3] appears, read: table after Example 10-97, read-out: hT2R8 IC50.
Setting [4] is: unit uM, read-out: IC50 on hT2R08 bitter receptor.

Read-outs that look alike come from different tables or passages of the source.

For `Cc1noc(C)c1Cn1cc(N2C(=O)N(CCc3cccc(F)c3)C(C)(C)C2=O)cn1` [Example 12-50, 3-(1-((3,5-dimethylisoxazol-4-yl)methyl)-1H-pyrazol-4-yl)-1-(3-fluorophenethyl)-5,5-dimethylimidazolidine-2,4-dione], the IC50 (usually the concentration that inhibits the measured activity by half) under setting [1] was determined as 0.15 µM. With `CCOc1cccc(C(=O)Nc2cnn(Cc3c(C)noc3C)c2)c1` [Example 4-59, N-(1-((3,5-dimethylisoxazol-4-yl)methyl)-1H-pyrazol-4-yl)-3-ethoxybenzamide], the IC50 (Table A, read-out: hT2R8 IC50) was determined as 0.22 µM. Regarding `Cc1noc(C)c1Cn1cc(N2C(=O)N(Cc3cccc(OCCN(C)C)c3)C(C)(C)C2=O)cn1` [Example 12-87, 1-(3-(2-(dimethylamino)ethoxy)benzyl)-3-(1-((3,5-dimethylisoxazol-4-yl)methyl)-1H-pyrazol-4-yl)-5,5-dimethylimidazolidine-2,4-dione], the IC50 under setting [1] was determined as 2.08 µM.

In the case of `Cc1noc(C)c1Cn1cc(NC(=O)c2cc(Cl)c3c(c2)OCCO3)cn1` [Example 4-91, 8-chloro-N-(1-((3,5-dimethylisoxazol-4-yl)methyl)-1H-pyrazol-4-yl)-2,3-dihydrobenzo[b][1,4]dioxine-6-carboxamide], the concentration for half-maximal inhibition (IC50) (Table A, read-out: hT2R8 IC50) was 0.1 µM. With `Cc1noc(C)c1Cn1cc(NC(=S)Nc2cccc(C#N)c2)cn1` [Example 4-109, 1-(3-cyanophenyl)-3-(1-((3,5-dimethylisoxazol-4-yl)methyl)-1H-pyrazol-4-yl)thiourea], where the note is “Table A, read-out: hT2R8 IC50”, the half-maximal inhibitory concentration (IC50) was 0.783 µM.

As to `Cc1noc(C)c1Cn1cc(N2C(=O)CN(CC3CCCO3)C2=O)cn1` (stereo not shown) [Example 10-73], the half-inhibitory concentration (IC50) under setting [2] was determined as 1.4 µM and the IC50 under setting [3] was 1.36 µM. For `Cc1cccc(C(=O)Nc2cnn(Cc3c(C)noc3C)c2)c1` [Example 4-28, N-(1-((3,5-dimethylisoxazol-4-yl)methyl)-1H-pyrazol-4-yl)-3-methylbenzamide], the IC50 (Table A, read-out: hT2R8 IC50) was 0.57 µM. Take `Cc1noc(C)c1Cn1cc(NC(=O)c2cccc(C#N)c2)cn1` [Example 4-10, 3-cyano-N-(1-((3,5-dimethylisoxazol-4-yl)methyl)-1H-pyrazol-4-yl)benzamide]: under setting [2], the IC50 was determined as 0.2 µM.

For `Cc1noc(C)c1Cn1cc(NC(=O)c2cccnc2)cn1` [Example 4-46, N-(1-((3,5-dimethylisoxazol-4-yl)methyl)-1H-pyrazol-4-yl)nicotinamide], for the setting “Table A, read-out: hT2R8 IC50”, the IC50 stood at 1.05 µM. In the case of “1-((1,3-dimethyl-1H-pyrazol-4-yl)methyl)-3-(1-((3,5-dimethylisoxazol-4-yl)methyl)-1H-pyrazol-4-yl) imidazolidine-2,4-dione [Example 10-90]”, the IC50 under setting [3] amounted to 0.215 µM.

Turning to `Cc1noc(C)c1Cn1cc(NC(=O)c2ccccc2)cn1` [Example 4-24, N-(1-((3,5-dimethylisoxazol-4-yl)methyl)-1H-pyrazol-4-yl)benzamide], for the setting “Table A, read-out: hT2R8 IC50”, the IC50 was found to be 2.62 µM.

With `Cc1noc(C)c1Cn1cc(NC(=S)Nc2ccccc2F)cn1` [Example 4-105, 1-(1-((3,5-dimethylisoxazol-4-yl)methyl)-1H-pyrazol-4-yl)-3-(2-fluorophenyl)thiourea], the IC50 (Table A, read-out: hT2R8 IC50) was 1.63 µM. On to `CCCCn1c(=O)n(-c2cnn(Cc3c(C)noc3C)c2)c(=O)n1Cc1ccccc1` [Example 10-95], for which the IC50 came to 0.41 µM under setting [2] and 0.409 µM under setting [3]. For `COc1cccc(CN2C(=O)N(c3cnn(Cc4c(C)noc4C)c3)C(=O)C2(C)C)c1OC` [Example 12-64, 1-(2,3-dimethoxybenzyl)-3-(1-((3,5-dimethylisoxazol-4-yl)methyl)-1H-pyrazol-4-yl)-5,5-dimethylimidazolidine-2,4-dione], under setting [1], the IC50 came to 0.3 µM. On to `Cc1noc(C)c1Cn1cc(N2C(=O)CN(Cc3cccc(C=O)c3)C2=O)cn1` [Example 10-24, 3-((3-(1-((3,5-dimethylisoxazol-4-yl)methyl)-1H-pyrazol-4-yl)-2,4-dioxoimidazolidin-1-yl)methyl)benzaldehyde], for which the 50% inhibitory concentration (IC50) reads like this: under setting [3], 0.201 µM; under setting [4], 0.2 µM. Consider `COc1ccccc1CN1C(=O)N(c2cnn(Cc3c(C)noc3C)c2)C(=O)C1(C)C` [Example 12-31, 3-(1-((3,5-dimethylisoxazol-4-yl)methyl)-1H-pyrazol-4-yl)-1-(2-methoxybenzyl)-5,5-dimethylimidazolidine-2,4-dione], for which the IC50 under setting [2] is 0.08 µM. The same measure, in the same setting: the value for `COc1cc(C(=O)Nc2cnn(Cc3c(C)noc3C)c2)cc2c1OCCO2` [Example 4-93, N-(1-((3,5-dimethylisoxazol-4-yl)methyl)-1H-pyrazol-4-yl)-8-methoxy-2,3-dihydrobenzo[b][1,4]dioxine-6-carboxamide] was 0.7 µM. As for `COc1cccc(CN2CC(=O)N(c3cnn(Cc4c(C)noc4C)c3)C2=O)c1` [Example 10-6, 3-(1-((3,5-dimethylisoxazol-4-yl)methyl)-1H-pyrazol-4-yl)-1-(3-methoxybenzyl)imidazolidine-2,4-dione], the IC50 reads like this: under setting [2], 0.07 µM; under setting [3], 0.073 µM. As to `Cc1noc(C)c1Cn1cc(N2C(=O)CN(Cc3ccn(C)n3)C2=O)cn1` [Example 10-38, 3-(1-((3,5-dimethylisoxazol-4-yl)methyl)-1H-pyrazol-4-yl)-1-((1-methyl-1H-pyrazol-3-yl)methyl)imidazolidine-2,4-dione], the IC50 under setting [3] came to 0.363 µM and the IC50 under setting [4] amounted to 0.4 µM. Taken in the same sequence, the figures for `COCCOc1ccccc1CN1CC(=O)N(c2cnn(Cc3c(C)noc3C)c2)C1=O` [Example 10-16, 3-(1-((3,5-dimethylisoxazol-4-yl)methyl)-1H-pyrazol-4-yl)-1-(2-(2-methoxyethoxy)benzyl)imidazolidine-2,4-dione] were 0.131 µM and 0.1 µM. Take `Cc1noc(C)c1Cn1cc(N2C(=O)CN(Cc3cc(C)n(C)n3)C2=O)cn1` [Example 10-28, 1-((1,5-dimethyl-1H-pyrazol-3-yl)methyl)-3-(1-((3,5-dimethylisoxazol-4-yl)methyl)-1H-pyrazol-4-yl) imidazolidine-2,4-dione]: the IC50 was 0.322 µM under setting [3] and 0.3 µM under setting [4]. Turning to `Cc1noc(C)c1Cn1cc(N2C(=O)NC(Cc3ccc(O)cc3)C2=O)cn1` (stereo not shown) [Example 10-59, 3-(1-((3,5-dimethylisoxazol-4-yl)methyl)-1H-pyrazol-4-yl)-5-(4-hydroxybenzyl)imidazolidine-2,4-dione], the IC50 reads like this: under setting [2], 0.33 µM; under setting [3], 0.327 µM.

With `Cc1noc(C)c1Cn1cc(N2C(=O)NC(Cc3ccc(O)c(O)c3)C2=O)cn1` (stereo not shown) [Example 10-60, 5-(3,4-dihydroxybenzyl)-3-(1-((3,5-dimethylisoxazol-4-yl)methyl)-1H-pyrazol-4-yl)imidazolidine-2,4-dione], the IC50 is, setting by setting: under setting [2], 0.51 µM; under setting [3], 0.513 µM. With `COc1cccc(CCN2C(=O)N(c3cnn(Cc4c(C)noc4C)c3)C(=O)C2(C)C)c1` [Example 12-60, 3-(1-((3,5-dimethylisoxazol-4-yl)methyl)-1H-pyrazol-4-yl)-1-(3-methoxyphenethyl)-5,5-dimethylimidazolidine-2,4-dione], under setting [1], the IC50 was 0.25 µM. `COCn1c(=O)n(-c2cnn(Cc3c(C)noc3C)c2)c(=O)n1Cc1ccccc1` [Example 10-89, 1-benzyl-4-(1-((3,5-dimethylisoxazol-4-yl)methyl)-1H-pyrazol-4-yl)-2-(methoxymethyl)-1,2,4-triazolidine-3,5-dione]: the IC50 runs as follows: under setting [2], 0.02 µM; under setting [3], 0.024 µM. On to `Cc1noc(C)c1Cn1cc(N2C(=O)CN(Cc3ccc(C#N)cc3)C2=O)cn1` [Example 10-32, 4-((3-(1-((3,5-dimethylisoxazol-4-yl)methyl)-1H-pyrazol-4-yl)-2,4-dioxoimidazolidin-1-yl)methyl)benzonitrile], for which the IC50 under setting [3] was 0.048 µM and the IC50 under setting [4] was 0.05 µM. For the compound `Cc1noc(C)c1Cn1cc(N2C(=O)[C@H]3Cc4ccc(O)cc4CN3C2=O)cn1` [Example 13-2, (R)-2-(1-((3,5-dimethylisoxazol-4-yl)methyl)-1H-pyrazol-4-yl)-7-hydroxy-10,10a-dihydroimidazo[1,5-b]isoquinoline-1,3(2H,5H)-dione], the 50% inhibitory concentration (IC50) under setting [2] came to 0.03 µM. Regarding `CNc1cnn(Cc2c(C)noc2C)c1` [Example 4-96, 1-((3,5-dimethylisoxazol-4-yl)methyl)-N-methyl-1H-pyrazol-4-amine], the IC50 (Table A, read-out: hT2R8 IC50) was 8.76 µM. With `Cc1nc2ccc(C(=O)Nc3cnn(Cc4c(C)noc4C)c3)cc2o1` [Example 4-83, N-(1-((3,5-dimethylisoxazol-4-yl)methyl)-1H-pyrazol-4-yl)-2-methylbenzo[d]oxazole-6-carboxamide], the IC50 (Table A, read-out: hT2R8 IC50) amounted to 0.7 µM.

With `Cc1noc(C)c1Cn1cc(N2C(=O)N(Cc3ccc(C(=O)O)cc3)C(C)(C)C2=O)cn1` [Example 12-89, 4-((3-(1-((3,5-dimethylisoxazol-4-yl)methyl)-1H-pyrazol-4-yl)-5,5-dimethyl-2,4-dioxoimidazolidin-1-yl)methyl)benzoic acid], the IC50 under setting [1] stood at 2.31 µM. With `Cc1noc(C)c1Cn1cc(NC(=O)C2CCCCC2)cn1` [Example 4-61, N-(1-((3,5-dimethylisoxazol-4-yl)methyl)-1H-pyrazol-4-yl)cyclohexanecarboxamide], the IC50 (Table A, read-out: hT2R8 IC50) stood at 2.2 µM. For the compound `Cc1ccccc1NC(=S)Nc1cnn(Cc2c(C)noc2C)c1` [Example 4-108, 1-(1-((3,5-dimethylisoxazol-4-yl)methyl)-1H-pyrazol-4-yl)-3-o-tolylthiourea], the IC50 (Table A, read-out: hT2R8 IC50) is 3.01 µM.
